Results as given in US7304062B2, “Peroxisome proliferator activated receptor alpha agonists” (Eli Lilly and Company, priority 2000, dated 2007).

SMILES	melting point [°C]
CCCn1c(CCCc2ccc(OC(C)(C)C(=O)O)cc2)nn(Cc2ccc(C)cc2)c1=O	94 to 96.5
CCCn1c(CCCc2ccc(OC)cc2)nn(Cc2ccc(C)cc2)c1=O [Example 118, 5-[3-(4-Methoxyphenyl)-propyl]-2-(4-methylbenzyl)-4-propyl-2,4-dihydro[1,2,4]tria-zol-3-one]	86.5 to 88.2
